Earlier results in patent US20030207846A1, “Treatment of pain, inflammation, and inflammation-related disorders with a combination of a cyclooxygenase-2 selective inhibitor and aspirin” (Pharmacia Corporation, priority 2002, published 2003).

What was measured:
upper GI tract = conditions: low-dose 75-300 mg/day
[1] = system: platelet aggregation and ex-vivo serum-generated thromboxane B2 production; conditions: healthy human subjects

In the case of `CC(=O)Oc1ccccc1C(=O)O` [aspirin, 2-(acetyloxy)benzoic acid], the “inhibition of platelet function” value (platelet function; 40 mg, conditions of limited compliance) is given as “not sufficient to inhibit platelet function”, the “efficacy as an antiplatelet agent” value (platelet function; 100-300 mg/day, plain or slow release form) is given as “very effective” and the “risk of upper GI tract complications” value (upper GI tract) is given as “increased the risk of upper GI tract complications”.
For `CS(=O)(=O)c1ccc(C2=C(c3ccccc3)C(=O)OC2)cc1` [rofecoxib], the tolerability ([1]; alone or in combination with the aspirin) is given as “well-tolerated” and the “effect on the anti-platelet effects of aspirin (inhibition of platelet aggregation and ex-vivo serum-generated thromboxane B2 production)” value ([1]; rofecoxib 50 mg/day with aspirin 81 mg/day) is given as “did not alter the anti-platelet effects of the aspirin”.
